Measured values: US20230121689A1, “CEPHALOSPORIN ANTIBACTERIAL COMPOUND AND PHARMACEUTICAL APPLICATION THEREOF” (priority 2020, published 2023)
Read-outs that look alike come from different tables or passages of the source.

Columns and labels:
[1] = Test Example 3: pharmacokinetic study in cynomolgus monkeys; assay type: in vivo; conditions: cynomolgus monkey, plasma, 10 mg/kg single intravenous infusion, individual animals
Description: An appropriate amount of a test compound was weighed precisely and added to a container, and 0.9% sodium chloride injection and 0.2 M NaOH solution were added thereto in an ice bath until the test compound was completely dissolved, so that a sample solution at a concentration of 2 mg/mL was obtained followed by storage at 2-8° C. for later use.
Species and strain: cynomolgus monkey Animal grade: general grade Animal source: Guangxi Xiongsen Primate Experimental Animal Breeding Development Co., Ltd. Number of the using of laboratory animal: SYXK (Su) 2019-0012
6 cynomolgus monkeys (half male and half female) were selected and randomly divided into 3 groups with 1 animal/sex in each group. The cynomolgus monkeys were administered with the test sample at a dose of 10 mg/kg by the single intravenous infusion. Blood samples were collected from each group of animals at the following time points: before administration, and 5 min, 15 min, 0.5 h, 1 h, 2 h, 4 h, 6 h, and 8 h after administration. In the test, the concentration of each test compound in the plasma of the cynomolgus monkey was detected by the LC-MS/MS method, and the lower limit of quantification of the analysis methods for the plasma samples were all 1 μg/mL. The plasma concentration data were analyzed by the non-compartmental analysis (NCA) of the analysis software for pharmacokinetic data, WinNonlin, pharmacokinetic parameters were calculated, and pharmacokinetic characteristics of the test compounds in cynomolgus monkeys after administration were investigated, with the results shown in the following table

[2] = test system: Carbapenem-resistant Pseudomonas aeruginosa (CRPA, Pseudomonas aeruginosa); assay: Test Example 2: antibacterial activity test (MIC); assay type: cell-based; conditions: ID-CAMHB, read-out: ID-CAMHB, MIC
Description: (§1) 1. The test compounds were dissolved in sterile normal saline, vortexed for uniformly mixing, and diluted in a 2-fold dilution with the sterile normal saline (11 concentration points in total). The test concentration range was 32-0.031 μg/mL, and two duplicate wells were set for each concentration. Additional wells without drug dosing were set as growth controls. 2. 4 μL of the diluent was added to 196 μL of the bacterial suspension in a 96-well plate (the bacterial count in the bacterial suspension was 2-8×10^5 colony forming units/mL). 3.
(§2) The minimum inhibitory concentration (MIC) assay was performed with reference to the Clinical and Laboratory Standards Institute (CLSI) guidelines.

[3] = test system: Carbapenem-resistant Acinetobacter baumannii (CRAB, Acinetobacter baumannii); assay: Test Example 2: antibacterial activity test (MIC); assay type: cell-based; conditions: ID-CAMHB, read-out: ID-CAMHB, MIC
Description: as §1, §2

[4] = test system: Control Strain Pseudomonas aeruginosa ATCC 27853; assay: Test Example 2: antibacterial activity test (MIC); assay type: cell-based; conditions: ATCC27853, ID-CAMHB, ATCC 27853, read-out: ID-CAMHB, MIC
Description: as §1, §2

[5] = test system: Control strain Escherichia coli ATCC 25922; assay: Test Example 2: antibacterial activity test (MIC); assay type: cell-based; conditions: ATCC25922, ID-CAMHB, ATCC 25922, read-out: ID-CAMHB, MIC
Description: as §1, §2

[6] = test system: Carbapenem-resistant Enterobacteriaceae (CRE, Klebsiella pneumoniae); assay: Test Example 2: antibacterial activity test (MIC); assay type: cell-based; conditions: ID-CAMHB, read-out: ID-CAMHB, MIC
Description: as §1, §2

[7] = both sexes, cynomolgus, iv, 10 mg/kg

AUC(0-inf) [1, 7]: 32900 ng·h/mL
AUC(0-t) [1, 7]: 29300 ng·h/mL
clearance [1, 7]: 5.06 mL/min/kg
half-life [1, 7]: 37.2 min
Cmax ([1]; both sexes, cynomolgus, iv, 10 mg/kg, read-out: Cmax): 35500 ng/mL
MRT ([1]; both sexes, cynomolgus, iv, 10 mg/kg, read-out: MRT): 38.4 min
Vd ([1]; both sexes, cynomolgus, iv, 10 mg/kg, read-out: Vd): 0.27 L/kg
Tmax ([1]; both sexes): 4.8 min
AUC last ([1]; 10 mg/kg): 23440 ng·h/mL
AUCinf ([1]; 10 mg/kg): 25640 ng·h/mL
CL ([1]; 10 mg/kg): 6.5002 mL/min/kg
Cmax ([1]; 10 mg/kg): 30640 ng/mL
MRT ([1]; 10 mg/kg): 37.2 min
Vd ([1]; 10 mg/kg): 0.31334 L/kg
t1/2 ([1]; 10 mg/kg): 33.6 min
MIC ([2]; FDA-CDC AR-BANK #0439 (aac(6′)-Il, aadA1b, BCR1, IMP-18, OXA-50)): 0.25 µg/mL
MIC ([2]; FDA-CDC AR-BANK #0441 (KPC-2)): 1 µg/mL
MIC ([2]; FDA-CDC AR-BANK #0444 (aac(6′)-Il, dfrB5, OXA-4, tet(G), VIM-2)): 16 µg/mL
MIC ([2]; FDA-CDC AR-BANK #0457 (aadA6, VIM-2)): 0.0625 µg/mL
MIC ([3]; FDA-CDC AR-BANK #0036 (strB, OXA-65, OXA-24, strA, sul2)): 0.125 µg/mL
MIC ([3]; FDA-CDC AR-BANK #0052 (OXA-58, OXA-100, sul2)): 0.0625 µg/mL
MIC ([3]; FDA-CDC AR-BANK #0063 (OXA-23, OXA-65, OXA-24, sul2)): > 32 µg/mL
MIC ([3]; FDA-CDC AR-BANK #0070 (OXA-58, OXA-100, sul2)): 0.125 µg/mL
MIC ([3]; FDA-CDC AR-BANK #0101 (strB, OXA-65, OXA-24, strA, sul2)): 0.5 µg/mL
MIC [4]: 0.0625 µg/mL
MIC [5]: 0.0625 µg/mL
MIC ([6]; FDA-CDC AR-BANK #0361 (TEM-1; SHV-12; KPC-2)): 0.25 µg/mL
MIC ([6]; FDA-CDC AR-BANK #0363 (TEM-1; SHV-12; KPC-2)): 0.125 µg/mL
MIC ([6]; FDA-CDC AR-BANK #0438 (aph(3′)-Ia, dfrA12, KPC-3, OmpK35, oqxA, oqxB, SHV-11)): 0.5 µg/mL
MIC ([6]; FDA-CDC AR-BANK #0453 (KPC-3, OmpK35, oqxA, oqxB, SHV-11, TEM-1B)): 2 µg/mL
SMILES: CC(C)(O/N=C(\C(=O)N[C@@H]1C(=O)N2C(C(=O)O)=C(C[N+]3(CCN(CCCNC(=O)c4ccc(O)c(O)c4Cl)C(=O)c4ccc(O)c(O)c4Cl)CCCC3)CS[C@H]12)c1csc(N)n1)C(=O)O [Compound 10]
